# Measurements published in patent US20160303114A1 (Laguna Pharmaceuticals, Inc., priority 2013, published 2016).
# Columns and labels:
# [1] = Example 5: concentrations of vanoxerine and its metabolites in patients after a 300 mg dose of vanoxerine; type: in vivo, human; settings: low concentration group, 300 mg vanoxerine
# Method: Each patient gave samples before administration of their dose, and then again at nine further time points, 30 minutes after administration, 1, 2, 3, 4, 6, 8, 12, and 24 hours post administration.
# [2] = Example 4: plasma concentrations of vanoxerine in patients after an oral vanoxerine HCL tablet; type: in vivo, human; settings: outlier patient, CYP2D6 slow metabolizer
# Source text: The results identified high levels of variability between patients and a single outlier, who was particularly profiled to determine the possible cause of the high plasma concentration levels.
# Accordingly, the individual patient could have received administration of ½ to ¼ the dose of other patients for the same effective plasma concentration as the majority of the patients in the study.
# [3] = healthy subjects, higher doses of vanoxerine; cited from earlier work
# [4] = Preliminary studies of daily use of vanoxerine over 7, 10 and 14 days; type: in vivo; settings: daily use over 7, 10, and 14 days, 75, 100, 125, and 150 mg a day
# Source text: However, control and prevention of events of cardiac arrhythmia are important to these patients to prevent future recurrences and the deleterious effects and morbidity.
smiles,measurement,setting,value
"Fc1ccc(C(OCCN2CCN(CCCc3ccccc3)CC2)c2ccc(F)cc2)cc1 [Vanoxerine, 1-[2-[bis(4-fluorophenyl)methoxy]ethyl]-4-(3-phenylpropyl)piperazine]","plasma levels, highest at any time point",[1],~40 ng/mL
same,plasma concentration,[2],unusually high plasma concentration
same,effects seen at higher doses,[3],"concentration difficulties, increase systolic blood pressure, asthenia, and a feeling of drug influence"
same,effects of daily use,[4],increased heart rate and systolic blood pressure
